Experimental data published in patent publication US10730868B2, “Bicyclic heteroaryl substituted compounds” (BRISTOL-MYERS SQUIBB COMPANY, priority 2016, dated 2020).

target: PAR4 (Homo sapiens (Human), UniProt Q96RI0); experiment: PAR4 FLIPR assay (antagonism of agonist-peptide-induced calcium mobilization); format: cell-based; conditions: H-Ala-Phe(4-F)-Pro-Gly-Trp-Leu-Val-Lys-Asn-Gly-NH2-induced intracellular calcium mobilization, PAR4-expressing HEK293 cells; read-out: PAR4 FLTPR assay (IC50)
Sequence (Q96RI0 18-385): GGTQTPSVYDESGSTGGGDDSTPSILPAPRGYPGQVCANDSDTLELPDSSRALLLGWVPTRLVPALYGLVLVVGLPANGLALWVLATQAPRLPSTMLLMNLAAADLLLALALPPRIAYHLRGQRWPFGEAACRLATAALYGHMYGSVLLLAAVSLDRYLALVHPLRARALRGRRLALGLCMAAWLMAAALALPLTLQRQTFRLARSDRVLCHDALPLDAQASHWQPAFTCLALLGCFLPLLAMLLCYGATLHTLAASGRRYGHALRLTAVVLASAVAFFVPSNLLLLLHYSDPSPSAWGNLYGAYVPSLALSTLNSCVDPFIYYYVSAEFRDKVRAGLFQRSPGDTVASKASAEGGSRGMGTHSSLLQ
Excerpt: The Fluorometric Imaging Plate Reader (FLIPR) assay is an exemplary in vitro assay for measuring the activity of the PAR4 antagonists of the present invention. In this assay, intracellular calcium mobilization is induced in PAR4 expressing cells by a PAR4 agonist and calcium mobilization is monitored.
HEK293 cells stably expressing PAR4 were generated by a standard method of transfection of human PAR4 (F2R23) cDNA expression vector and selected based on PAR4 protein expression or mRNA expression. […] These cells also express endogenous PAR1 and can elicit calcium signal upon stimulation with PAR1 agonist peptide. Therefore, the same cells were also used to determine selectivity against PAR1 and agonist activity for both receptors. Cells from HEK293 PAR4 Clone 1.2A (BMS Arctic ID 383940) were propagated and used for calcium mobilization studies.
FLIPR-based calcium mobilization assay in HEK293 cells was used to measure PAR4 antagonism agonism, and selectivity against PAR1. The activity of the PAR4 antagonists of the present invention were tested in PAR4 expressing cells by monitoring H-Ala-Phe(4-F)-[…]NH2-induced intracellular calcium mobilization. Counter screens for agonist activity and PAR1 antagonist activity were also performed. Briefly, PAR/PAR4-expressing HEK293 cells were grown in DMEM (Life Technology, Grand Island, N.Y.) containing 10% heat-inactivated FBS, 1% Penicillin-Streptomycin, 10 μg/mL blasticidin, and 100 μg/mL Zeocin at 37° C. with 5% CO2. Cells were plated overnight prior to the experiment in a black 384-well Purecoat Amine clear bottom plate (Becton Dickinson Biosciences, San Jose, Calif.) at 10,000 cells/well in 30 μL growth medium and incubated in a humidified chamber at 37° C. with 5% CO2 overnight. Prior to compound addition, the cell medium was replaced with 40 μL of 1× calcium and magnesium-containing Hank's Balanced Saline Solution (HBSS) (with 20 mM HEPES) and 1:1000 diluted fluorescent calcium indicator (Codex Biosolutions, Gaithersburg, Md.). After a 30 minute incubation period at 37° C. and a further 30 minute incubation and equilibration period at room temperature, 20 μL test compound (diluted in 1×HBSS buffer) was added at various concentrations at 0.17% dimethyl sulfoxide (DMSO) final concentration. Changes in fluorescence intensity were measured using a Functional Drug Screening System (FDSS, Hamamatsu, Japan) to determine agonist activities. The cells were then incubated for 30 minutes at room temperature followed by addition of 20 μL of agonist peptide for antagonist activity measurement. […] Compound potency was derived from 11-point concentration-response curves.

| SMILES | IC50 [nM] |
| --- | --- |
| COc1cnc2c(-c3nc4cc(F)c(O[C@H]5CCC[C@H]5OC(=O)Nc5cncc(C#N)c5)cc4s3)cc(C)cc2n1 [Example 34] | 1.6 |
| COc1cnc2c(-c3nc4cc(F)c(O[C@H]5CC(F)(F)CC[C@H]5OC(=O)Nc5cnc(CO)nc5)cc4s3)cc(C)cc2n1 [Example 10] | 23 |
| COc1cnc2c(-c3nc4cc(F)c(O[C@@H]5CC[C@@H]5OC(=O)Nc5cnc(OCCO)nc5)cc4s3)cc(Cl)cc2c1 [Example 76] | 10 |
| COc1cnc2c(-c3nc4cc(F)c(O[C@H]5CC(F)(F)CC[C@H]5OC(=O)Nc5cnc(CCO)nc5)cc4s3)cc(C)cc2n1 [Example 3] | 0.82 |
| COc1cnc2c(-c3nc4cc(F)c(O[C@H]5CC(F)(F)CC[C@H]5OC(=O)Nc5cnc(OCCO)nc5)cc4s3)cc(Cl)cc2c1 [Example 16, (1R,2S)-2-((2-(6-chloro-3-methoxyquinolin-8-vi)-5-fluorobenzo[d]thiazol-6-yl)oxy)-4,4-difluorocyclohexyl (2-(2-hydroxyethoxy)pyrimidin-5-yl)carbamate] | 1.3 |
| COc1ccc(NC(=O)O[C@@H]2CCC[C@@H]2Oc2cc3sc(-c4cc(C)cc5nc(OC)cnc45)nc3cc2F)cc1 [Example 25] | 1.3 |
| COc1cnc2c(-c3nc4cc(F)c(O[C@H]5CC(F)(F)CC[C@H]5OC(=O)Nc5ccc(C(=O)NCC(C)(C)O)nc5)cc4s3)cc(C)cc2n1 [Example 2] | 0.46 |
| COc1cnc2c(-c3nc4cc(F)c(O[C@@H]5CCC[C@@H]5OC(=O)Nc5cnc(C)nc5)cc4s3)cc(C)cc2n1 [Example 27] | 58 |
| COc1cnc2c(-c3nc4cc(F)c(O[C@H]5CC(F)(F)CC[C@H]5OC(=O)Nc5cnc(C)nc5)cc4s3)cc(Cl)cc2c1 [Example 17, (1R,2S)-2-((2-(6-chloro-3-methoxyquinolin-8-yl)-5-fluorobenzo[d]thiazol-6-yl)oxy)-4,4-difluorocyclohexyl (2-methylpyrimidin-5-yl)carbamate] | 4.1 |
| CCOc1cnc2c(-c3nc4cc(F)c(O[C@@H]5CC[C@@H]5OC(=O)Nc5cnc(OCCO)nc5)cc4s3)cc(C)cc2n1 [Example 75] | 5.9 |
| COc1cnc2c(-c3nc4cc(F)c(O[C@H]5CC(F)(F)CC[C@H]5OC(=O)Nc5cnc(C)nc5)cc4s3)cc(C)cc2n1 [Example 4] | 1.9 |
| COc1cnc2c(-c3nc4cc(F)c(O[C@H]5CC[C@H]5OC(=O)Nc5cnc(C)nc5)cc4s3)cc(C)cc2n1 [Example 69] | 1.2 |
| COC(=O)c1ncc(NC(=O)O[C@@H]2CCC[C@@H]2Oc2cc3sc(-c4cc(C)cc5nc(OC)cnc45)nc3cc2F)cn1 [Example 51, methyl 5-(((((1R,2S)-2-((5-fluoro-2-(2-methoxy-7-methylquinoxalin-5-yl)benzo[d]thiazol-6-yl)oxy)cyclopentyl)oxy)carbonyl)amino)pyrimidine-2-carboxylate] | 6.8 |
| COc1cnc2c(-c3nc4cc(F)c(O[C@H]5CC(F)(F)CC[C@H]5OC(=O)Nc5ccc(CO)nc5)cc4s3)cc(C)cc2n1 [Example 6] | 0.76 |
| COc1cnc2c(-c3nc4cc(F)c(O[C@H]5CC(F)(F)CC[C@H]5OC(=O)Nc5cnc(OCCO)nc5)cc4s3)cc(C)cc2c1 [Example 15, (1R, 2S)-4,4-difluoro-2-((5-fluoro-2-(3-methoxy-6-methylquinolin-8-yl)benzo[d]thiazol-6-yl)oxy)cyclohexyl (2-(2-hydroxyethoxy)pyrimidin-5-yl)carbamate] | 0.77 |
| CCOc1cnc2c(-c3nc4cc(F)c(O[C@@H]5CC[C@@H]5OC(=O)Nc5cnc(OCCO)nc5)cc4s3)cc(Cl)cc2c1 [Example 77] | 9.2 |
| COc1cnc2c(-c3nc4cc(F)c(O[C@H]5CC(F)(F)CC[C@H]5OC(=O)Nc5cnc(OCCOP(=O)(O)O)nc5)cc4s3)cc(C)cc2n1 [Example 19, (1R,2S)-4,4-difluoro-2-((5-fluoro-2-(2-methoxy-7-methylquinoxalin-5-yl)benzo[d]thiazol-6-yl)oxy)cyclohexyl (2-(2-(phosphonooxy)ethoxy)pyrimidin-5-yl)carbamate] | 1 |

same assay, conditions: H-Ala-Phe(4-F)-[…]NH2-induced intracellular calcium mobilization, PAR4-expressing HEK293 cells; read-out: PAR4 FLTPR assay (IC50)

| SMILES | IC50 [nM] |
| --- | --- |
| COc1cnc2c(-c3nc4cc(F)c(O[C@@H]5CN(C(=O)C(F)(F)F)CC[C@@H]5OC(=O)Nc5cnc(C)nc5)cc4s3)cc(C)cc2n1 (racemic) [Example 96, rac-cis-3-((5-fluoro-2-(2-methoxy-7-methylquinoxalin-5-yl)benzo[d]thiazol-6-yl)oxy)-1-(2,2,2-trifluoroacetyl)piperidin-4-yl (2-methylpyrimidin-5-yl)carbamate] | 44 |
| COc1ccc(NC(=O)O[C@@H]2CCC[C@@H]2Oc2cc3sc(-c4cc(C)cc5nc(OC)cnc45)nc3cc2F)cn1 [Example 22, (1R,2S)-2-((5-fluoro-2-(2-methoxy-7-methylquinoxalin-5-yl)benzo[d]thiazol-6-yl)oxy)cyclopentyl (6-methoxy pyridin-3-yl)carbamate] | 2.4 |
| COc1cnc2c(-c3nc4cc(F)c(O[C@@H]5CC[C@@H]5OC(=O)Nc5cnc(C)nc5)cc4s3)cc(C)cc2n1 (racemic) [Example 61, rac-cis-2-((5-fluoro-2-(2-methoxy-7-methylquinoxalin-5-yl)benzo[d]thiazol-6-yl)oxy) cyclobutyl (2-methylpyrimidin-5-yl)carbamate] | 1.3 |
| COc1cnc2c(-c3nc4cc(F)c(OC5CCC[C@@H]5O)cc4s3)cc(C)cc2n1 (mixture of isomers) [Example 21, rac-cis-2-((5-fluoro-2-(2-methoxy-7-methylquinoxalin-5-yl)benzo[c]thiazol-6-yl)oxy)cyclopentanol] | 470 |
| COc1cnc2c(-c3nc4cc(F)c(O[C@H]5CC(C)(C)C[C@H]5OC(=O)Nc5cnc(C)nc5)cc4s3)cc(C)cc2n1 (single isomer, unassigned; enantiomer 1) [Example 84, (cis)-2-((5-fluoro-2-(2-methoxy-7-methylquinoxalin-5-yl)benzo[d]thiazol-6-yl)oxy)-4,4-dimethylcyclopentyl (2-methylpyrimidin-5-yl)carbamate Enantiomer 1] | 5.4 |
| COc1cnc2c(-c3nc4cc(F)c(OC5CC(F)(F)CC[C@@H]5OC(=O)Nc5cncc(C#N)c5)cc4s3)cc(C)cc2n1 (mixture of isomers) [Example 12] | 5.7 |
| COc1ccc(NC(=O)O[C@@H]2CCC[C@H]2Oc2cc3sc(-c4cc(C)cc5nc(OC)cnc45)nc3cc2F)cn1 (racemic) [Example 28] | 96 |
| COc1cnc2c(-c3nc4cc(F)c(O[C@@H]5CCC[C@@H]5OC(=O)Nc5cnc(C)nc5)cc4s3)cc(C#N)cc2n1 (racemic) [Example 46, rac-cis-2-((2-(7-cyano-2-methoxyquinoxalin-5-yl)-5-fluorobenzo[d]thiazol-6-yl)oxy)cyclopentyl (2-methylpyrimidin-5-yl)carbamate] | 2 |
| COc1cnc2c(-c3nc4cc(F)c(O[C@@H]5CCC[C@@H]5OC)cc4s3)cc(C)cc2n1 (racemic) [Example 40, rac-5-fluoro-2-(2-methoxy-7-methylquinoxalin-5-yl)-6-((cis-2-methoxycyclopentyl)oxy)benzo[d]thiazole] | 83 |
| COc1cnc2c(-c3nc4cc(F)c(O[C@H]5CCC[C@H]5OC(=O)Nc5cnc(C)nc5)cc4s3)cc(C)cc2n1 (racemic) [Example 35] | 2.5 |
| COc1cnc2c(-c3nc4cc(F)c(O[C@@H]5CCC[C@H]5OC)cc4s3)cc(C)cc2n1 (racemic) [Example 42, rac-5-fluoro-2-(2-methoxy-7-methylquinoxalin-5-yl)-6-((trans-2-methoxycyclopentyl)oxy)benzo[d]thiazole] | 320 |
| COc1cnc2c(-c3nc4cc(F)c(O[C@H]5CCC[C@H]5OC(=O)Nc5cccnc5)cc4s3)cc(C)cc2n1 (racemic) [Example 38] | 9.4 |
| COc1cnc2c(-c3nc4cc(F)c(O[C@@H]5CN(C(=O)OCc6ccccc6)C[C@H]5O)cc4s3)cc(C)cc2n1 (racemic) [Example 90, rac-trans-benzyl 3-((5-fluoro-2-(2-methoxy-7-methylquinoxalin-5-yl)benzo[d]thiazol-6-yl)oxy)-4-hydr oxopyrrolidine-1-carboxylate] | 330 |
| COc1ccc(NC(=O)O[C@H]2CCOC[C@H]2Oc2cc3sc(-c4cc(C)cc5nc(OC)cnc45)nc3cc2F)cn1 (racemic) [Example 88, rac-cis-3-((5-fluoro-2-(2-methoxy-7-methylquinoxalin-5-yl)benzoldithiazol-6-yl)oxy)tetrahydro-2H-pyran-4-yl (6-methoxypyridin-3-yl)carbamate] | 21 |
